Laboratory results as given in patent publication US20230295182A1, “SPIRO DERIVATIVES OF ALPHA-D-GALACTOPYRANOSIDES” (Idorsia Pharmaceuticals Ltd, priority 2020, published 2023).

Tests used:
human Gal-1 (hGal-1) = human Gal-1 (hGal-1) (Homo sapiens, UniProt P09382); test: Competitive binding assay: biotinylated hGal-1 to microplate-adsorbed asialofetuin (ASF); conditions: Activities on hGal-1; binding to ASF-coated plates, 3 hours at 4° C.; mean values; read-out: Gal-1 IC50
Method in brief: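 Plate-adsorbed asialofetuin is incubated 3 h at 4 °C with biotinylated hGal-1, optionally its all-serine-substituted cysteine variant, plus compound dilutions. ABTS color after 1 h streptavidin-peroxidase (80 ng/mL) at 4 °C reports binding. Reported IC50 is a mean across repeat runs.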

human Gal-3 (hGal-3) = human Gal-3 (hGal-3) (Homo sapiens (Human), UniProt P17931); test: Competitive binding assay: biotinylated hGal-3 to microplate-adsorbed asialofetuin (ASF); conditions: Activity on hGal-3; binding to ASF-coated plates, 3 hours at 4° C.; mean values
Sequence of human Gal-3 (hGal-3) (P17931 whole entry): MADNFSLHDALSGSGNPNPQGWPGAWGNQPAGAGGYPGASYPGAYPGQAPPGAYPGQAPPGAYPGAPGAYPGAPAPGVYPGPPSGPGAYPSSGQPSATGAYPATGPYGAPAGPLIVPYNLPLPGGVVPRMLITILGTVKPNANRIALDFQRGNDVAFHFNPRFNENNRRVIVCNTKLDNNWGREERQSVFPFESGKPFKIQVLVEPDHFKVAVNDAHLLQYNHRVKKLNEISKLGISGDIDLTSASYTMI
Method in brief: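 Biotinylated hGal-3 (300-1000 ng/mL) binding to plate-adsorbed asialofetuin, with DMSO-diluted compound added, incubated 3 h at 4 °C. After washing, bound protein detected with streptavidin-peroxidase (80 ng/mL, 1 h, 4 °C) and ABTS substrate, read spectrophotometrically. IC50 given as mean of several measurements.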

Sequence of human Gal-1 (hGal-1) (P09382 2-135 limits assumed): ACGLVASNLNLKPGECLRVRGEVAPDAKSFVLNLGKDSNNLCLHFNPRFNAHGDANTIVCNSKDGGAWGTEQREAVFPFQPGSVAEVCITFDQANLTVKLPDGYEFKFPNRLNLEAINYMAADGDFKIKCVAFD

| Compound | IC50 (human Gal-1 (hGal-1)) | IC50 (human Gal-3 (hGal-3)) |
| --- | --- | --- |
| CO[C@@H]1[C@@H](n2cc(-c3ccc(Cl)c(F)c3F)nn2)[C@@H](O)[C@@H](CO)O[C@@H]1CN1CC2(CCCCC2)CNC1=O [Example 4.02, 2-(((2R,3R,4S,5R,6R)-4-(4-(4-chloro-2,3-difluorophenyl)-1H-1,2,3-triazol-1-yl)-5-hydroxy-6-(hydroxymethyl)-3-methoxytetrahydro-2H-pyran-2-yl)methyl)-2,4-diazaspiro[5.5]undecan-3-one] | 400 nM | 74 nM |
| CO[C@@H]1[C@@H](n2cc(-c3ccc(C)c(F)c3F)nn2)[C@@H](O)[C@@H](CO)O[C@@H]1CN1CC2(CCCCC2)N=C1C [Example 4.03, (2R,3R,4S,5R,6R)-4-(4-(2,3-difluoro-4-methylphenyl)-1H-1,2,3-triazol-1-yl)-2-(hydroxymethyl)-5-methoxy-6-((2-methyl-1,3-diazaspiro[4.5]dec-1-en-3-yl)methyl)tetrahydro-2H-pyran-3-ol] | 1700 nM | 74 nM |
| CO[C@@H]1[C@@H](n2cc(-c3ccc(C)c(F)c3F)nn2)[C@@H](O)[C@@H](CO)O[C@@H]1CN1C=NC2(CCCCC2)C1 [Example 4.04, (2R,3R,4S,5R,6R)-6-((1,3-diazaspiro[4.5]dec-1-en-3-yl)methyl)-4-(4-(2,3-difluoro-4-methylphenyl)-1H-1,2,3-triazol-1-yl)-2-(hydroxymethyl)-5-methoxytetrahydro-2H-pyran-3-ol] | 1300 nM | 81 nM |
| (2R,3R,4S,5R,6R)-6-((8,8-difluoro-1-oxa-2-azaspiro[4.5]dec-2-en-3-yl)methyl)-4-(4-(2,3-difluoro-4-methylphenyl)-1H-1,2,3-triazol-1-yl)-2-(hydroxymethyl)-5-methoxytetrahydro-2H-pyran-3-ol [Example 2.27] | 11500 nM | 81 nM |
